Reference: the supplement of paper PMC10307832

Experiments:
Assay in all cases: relative viability (nuclei count vs DMSO), 5 days (fraction); higher = more cells survive
[1] = system: A-427
Method in brief: (§1)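 Cells from lung cancer lines were seeded into 1536-well plates and, one day later, dosed by pin tool. Treatments were either a single drug or a fixed dose of an anchor drug with five library-drug doses (not always all listed) in √10 steps. After 5 days, nuclei were stained in a one-step fixation (final 0.05% Triton X-100, 1% formaldehyde, 1 ug/ml Hoechst) and counted on 4× images, and relative viability is the treated-to-vehicle nuclei ratio, as the median of duplicate plates.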

[2] = system: COR-L 105
Method in brief: as §1

[3] = system: EPLC-272H
Method in brief: as §1

[4] = system: HCC-366
Method in brief: as §1

[5] = system: HCC-78
Method in brief: as §1

[6] = system: HOP-62
Method in brief: as §1

[7] = system: LC-2-ad
Method in brief: as §1

[8] = system: LU99A
Method in brief: as §1

[9] = system: LXF-289
Method in brief: as §1

[10] = system: NCI-H1666
Method in brief: as §1

[11] = system: NCI-H1792
Method in brief: as §1

[12] = system: NCI-H1793
Method in brief: as §1

[13] = system: NCI-H1915
Method in brief: as §1

[14] = system: NCI-H1944
Method in brief: as §1

[15] = system: NCI-H2009
Method in brief: as §1

[16] = system: NCI-H2085
Method in brief: as §1

[17] = system: NCI-H358
Method in brief: as §1

[18] = system: NCI-H460
Method in brief: as §1

[19] = system: SK-LU-1
Method in brief: as §1

[20] = system: UMC-11
Method in brief: as §1

CCN(CC)CCCCNc1ncc2cc(-c3cc(OC)cc(OC)c3)c(NC(=O)NC(C)(C)C)nc2n1 + C[C@]1(O)C[C@@H](c2nc(-c3ccc4ccc(-c5ccccc5)nc4c3)c3c(N)nccn32)C1 [Linsitinib] (partner 1 µM) showed a relative viability ([1]; first compound 0.01 µM) of 1.12, a relative viability ([1]; first compound 0.03162 µM) of 1.17 and a relative viability ([1]; first compound 0.1 µM) of 1.21. For the same molecule, the relative viability ([1]; first compound 0.3162 µM) was 1.18, the relative viability ([1]; first compound 1 µM) was 0.993 and the relative viability ([2]; first compound 0.01 µM) was 1.1. It also gave a relative viability ([2]; first compound 0.03162 µM) of 0.794, a relative viability ([2]; first compound 0.1 µM) of 1.02 and a relative viability ([2]; first compound 0.3162 µM) of 0.963. It also gave a relative viability ([2]; first compound 1 µM) of 0.868, a relative viability ([3]; first compound 0.01 µM) of 1.26 and a relative viability ([3]; first compound 0.1 µM) of 1.1. The relative viability ([3]; first compound 0.3162 µM) was 1.32, the relative viability ([3]; first compound 1 µM) was 1.17 and the relative viability ([4]; first compound 0.01 µM) was 0.622. For the same molecule, the relative viability ([4]; first compound 0.03162 µM) was 0.706, the relative viability ([4]; first compound 0.1 µM) was 0.66 and the relative viability ([4]; first compound 0.3162 µM) was 0.887. For the same molecule, the relative viability ([4]; first compound 1 µM) was 0.505, the relative viability ([5]; first compound 0.03162 µM) was 0.55 and the relative viability ([5]; first compound 0.1 µM) was 0.497. For the same molecule, the relative viability ([5]; first compound 0.3162 µM) was 0.593, the relative viability ([5]; first compound 1 µM) was 0.415 and the relative viability ([6]; first compound 0.01 µM) was 1.04. The relative viability ([6]; first compound 0.03162 µM) was 1.02, the relative viability ([6]; first compound 0.1 µM) was 0.935 and the relative viability ([6]; first compound 0.3162 µM) was 1.14. The relative viability ([6]; first compound 1 µM) was 0.873, the relative viability ([7]; first compound 0.01 µM) was 0.803 and the relative viability ([7]; first compound 0.03162 µM) was 0.913. It also gave a relative viability ([7]; first compound 0.1 µM) of 0.958, a relative viability ([7]; first compound 0.3162 µM) of 0.876 and a relative viability ([7]; first compound 1 µM) of 0.757. It also gave a relative viability ([8]; first compound 0.01 µM) of 0.557, a relative viability ([8]; first compound 0.03162 µM) of 0.565 and a relative viability ([8]; first compound 0.1 µM) of 0.565. The relative viability ([8]; first compound 0.3162 µM) was 0.583, the relative viability ([8]; first compound 1 µM) was 0.517 and the relative viability ([9]; first compound 0.01 µM) was 0.974. It also gave a relative viability ([9]; first compound 0.03162 µM) of 1.02, a relative viability ([9]; first compound 0.1 µM) of 1.03 and a relative viability ([9]; first compound 0.3162 µM) of 0.972. It also gave a relative viability ([9]; first compound 1 µM) of 0.843, a relative viability ([10]; first compound 0.01 µM) of 1.04 and a relative viability ([10]; first compound 0.03162 µM) of 0.674. The relative viability ([10]; first compound 0.1 µM) was 0.997, the relative viability ([10]; first compound 0.3162 µM) was 0.944 and the relative viability ([10]; first compound 1 µM) was 0.726. It also gave a relative viability ([11]; first compound 0.01 µM) of 0.572, a relative viability ([11]; first compound 0.03162 µM) of 0.501 and a relative viability ([11]; first compound 0.1 µM) of 0.475. It also gave a relative viability ([11]; first compound 0.3162 µM) of 0.696, a relative viability ([11]; first compound 1 µM) of 0.295 and a relative viability ([12]; first compound 0.01 µM) of 1.14. For the same molecule, the relative viability ([12]; first compound 0.1 µM) was 1.02, the relative viability ([12]; first compound 0.3162 µM) was 1.03 and the relative viability ([12]; first compound 1 µM) was 0.656. It also gave a relative viability ([13]; first compound 0.01 µM) of 1.11, a relative viability ([13]; first compound 0.03162 µM) of 1.12 and a relative viability ([13]; first compound 0.1 µM) of 1.12. The relative viability ([13]; first compound 0.3162 µM) was 1.1, the relative viability ([13]; first compound 1 µM) was 1.15 and the relative viability ([14]; first compound 0.01 µM) was 1.27. The relative viability ([14]; first compound 0.03162 µM) was 1.08, the relative viability ([14]; first compound 0.1 µM) was 1.2 and the relative viability ([14]; first compound 0.3162 µM) was 1.3. For the same molecule, the relative viability ([14]; first compound 1 µM) was 1.12, the relative viability ([15]; first compound 0.01 µM) was 1.29 and the relative viability ([15]; first compound 0.03162 µM) was 1.19. For the same molecule, the relative viability ([15]; first compound 0.1 µM) was 1.23, the relative viability ([15]; first compound 0.3162 µM) was 1.26 and the relative viability ([15]; first compound 1 µM) was 1.21. It also gave a relative viability ([16]; first compound 0.01 µM) of 0.977, a relative viability ([16]; first compound 0.03162 µM) of 0.949 and a relative viability ([16]; first compound 0.1 µM) of 1.07. The relative viability ([16]; first compound 0.3162 µM) was 0.918, the relative viability ([16]; first compound 1 µM) was 0.887 and the relative viability ([17]; first compound 0.01 µM) was 0.731. It also gave a relative viability ([17]; first compound 0.03162 µM) of 0.748, a relative viability ([17]; first compound 0.1 µM) of 0.767 and a relative viability ([17]; first compound 0.3162 µM) of 0.859. The relative viability ([17]; first compound 1 µM) was 0.695, the relative viability ([18]; first compound 0.01 µM) was 1.05 and the relative viability ([18]; first compound 0.03162 µM) was 0.985. For the same molecule, the relative viability ([18]; first compound 0.1 µM) was 0.868, the relative viability ([18]; first compound 0.3162 µM) was 1.58 and the relative viability ([18]; first compound 1 µM) was 0.293. The relative viability ([19]; first compound 0.01 µM) was 1.24, the relative viability ([19]; first compound 0.03162 µM) was 1.1 and the relative viability ([19]; first compound 0.1 µM) was 1.4. It also gave a relative viability ([19]; first compound 0.3162 µM) of 1.49, a relative viability ([19]; first compound 1 µM) of 0.988 and a relative viability ([20]; first compound 0.01 µM) of 1.25. For the same molecule, the relative viability ([20]; first compound 0.03162 µM) was 1.02, the relative viability ([20]; first compound 0.1 µM) was 1.29 and the relative viability ([20]; first compound 0.3162 µM) was 1.21. The relative viability ([20]; first compound 1 µM) was 0.99.
